This note sets out measurements from PubChem BioAssay AID256 (DTP/NCI, 2004).

The test system of the assay is CD2F1 mice, L1210 leukemia ip, survival T/C. The assay is described as follows: NCI In Vivo Anticancer Drug Screen. Data for tumor model L1210 Leukemia (intraperitoneal) in CD2F1 (CDF1) mice. The note with it: higher = longer survival. An outline of the steps:
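Transplantable tumor in mice; compound-treated vs vehicle-treated groups. Read-out = treated/control ratio of the measured endpoint.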

Setting [1] is: endpoint: mean survival time, dose: 50.0 mg/kg/injection, schedule: Q01DX009 (ip), vehicle: saline with Tween-80.
The mark [2] stands for this setting: endpoint: mean survival time, dose: 100.0 mg/kg/injection, schedule: Q01DX009 (ip), vehicle: saline with Tween-80.
Setting [3] is: endpoint: mean survival time, dose: 200.0 mg/kg/injection, schedule: Q01DX009 (ip), vehicle: saline with Tween-80.
[4] abbreviates: endpoint: mean survival time, dose: 100.0 mg/kg/injection, schedule: Q04DX003 (ip), vehicle: saline with Tween-80.
Setting [5] is: endpoint: mean survival time, dose: 200.0 mg/kg/injection, schedule: Q04DX003 (ip), vehicle: saline with Tween-80.
Where [6] appears, read: endpoint: mean survival time, dose: 400.0 mg/kg/injection, schedule: Q04DX003 (ip), vehicle: saline with Tween-80.
[7] abbreviates: endpoint: mean survival time, dose: 100.0 mg/kg/injection, schedule: Q01DX001 (ip), vehicle: saline with Tween-80.
[8] abbreviates: endpoint: mean survival time, dose: 200.0 mg/kg/injection, schedule: Q01DX001 (ip), vehicle: saline with Tween-80.
Setting [9] is: endpoint: mean survival time, dose: 400.0 mg/kg/injection, schedule: Q01DX001 (ip), vehicle: saline with Tween-80.
Setting [10] is: endpoint: mean survival time, dose: 50.0 mg/kg/injection, schedule: Q04DX002 (ip), vehicle: saline with Tween-80.
Where [11] appears, read: endpoint: mean survival time, dose: 100.0 mg/kg/injection, schedule: Q04DX002 (ip), vehicle: saline with Tween-80.
Where [12] appears, read: endpoint: mean survival time, dose: 200.0 mg/kg/injection, schedule: Q04DX002 (ip), vehicle: saline with Tween-80.

Several values for one entry are separate records, joined by “and”; a condition that tells them apart may be missing. Equal entries are not always repeated. Inconclusive results and toxic doses are left out.

For the compound `Nc1cc2c(cc1Br)-c1c(C(=O)O)cccc1C2O` (configuration not stated), the T/C by setting is: (endpoint: median survival time, dose: 50.0 mg/kg/injection, schedule: Q01DX005 (ip), vehicle: sodium bicarbonate) 100 % of control; (endpoint: median survival time, dose: 100.0 mg/kg/injection, schedule: Q01DX005 (ip), vehicle: sodium bicarbonate) 101 % of control; (endpoint: median survival time, dose: 200.0 mg/kg/injection, schedule: Q01DX005 (ip), vehicle: sodium bicarbonate) 113 % of control; (endpoint: median survival time, dose: 400.0 mg/kg/injection, schedule: Q01DX005 (ip), vehicle: sodium bicarbonate) 122 % of control; (endpoint: median survival time, dose: 800.0 mg/kg/injection, schedule: Q01DX005 (ip), vehicle: sodium bicarbonate) 122 % of control.

Take `CCCC(C)CC(=CC(C)(C)C)CC(C)CCC` (configuration not stated): the T/C is 96 % of control under setting [1], 100 % of control under setting [2] and 100 % of control under setting [3].

In the case of `N#C/C(=C1C=C/C(=N\O)C(Cl)=C\1)c1ccccc1`, the T/C is 103 % of control under setting [2]; 88 % of control under setting [4]; 88 % of control under setting [3]; 93 % of control under setting [5]; 96 % of control under setting [6].

As for `CNC(=S)N(/N=C/c1cc(Cl)cc(Cl)c1O)c1ccccc1`, the T/C is 87 % of control under setting [7], 87 % of control under setting [8] and 91 % of control under setting [9].

`O=C(Nc1cccc2ccccc12)OC1CCCCC1Br` (configuration not stated): the T/C runs as follows: (endpoint: mean survival time, dose: 6.25 mg/kg/injection, schedule: Q01DX001 (ip), vehicle: saline with Tween-80) 100 % of control; (endpoint: mean survival time, dose: 12.5 mg/kg/injection, schedule: Q01DX001 (ip), vehicle: saline with Tween-80) 92 % of control; (endpoint: mean survival time, dose: 25.0 mg/kg/injection, schedule: Q01DX001 (ip), vehicle: saline with Tween-80) 100 % of control; (endpoint: mean survival time, dose: 50.0 mg/kg/injection, schedule: Q01DX001 (ip), vehicle: saline with Tween-80) 93 % of control; under setting [7], 89 % of control.

`O=C(c1ccccc1)C(C(c1ccccc1)N1CCOCC1)N1CCOCC1` (configuration not stated): the T/C is 90 % of control under setting [4]; 96 % of control under setting [3]; 92 % of control under setting [5]; 93 % of control (endpoint: mean survival time, dose: 400.0 mg/kg/injection, schedule: Q01DX009 (ip), vehicle: saline with Tween-80); 97 % of control under setting [6].

`CN1C(C(=O)O)CCC1C(=O)O` (configuration not stated): the T/C reads like this: (endpoint: mean survival time, dose: 100.0 mg/kg/injection, schedule: Q04DX003 (ip), vehicle: saline) 96 % of control; (endpoint: mean survival time, dose: 200.0 mg/kg/injection, schedule: Q04DX003 (ip), vehicle: saline) 98 % of control.

Regarding `O=C(O)/C=C/C(=O)Nc1cccc(Oc2ccc([N+](=O)[O-])cc2[N+](=O)[O-])c1`, the T/C (endpoint: mean survival time, dose: 100.0 mg/kg/injection, schedule: Q01DX009 (ip), vehicle: saline) is 96 % of control; the T/C (endpoint: mean survival time, dose: 200.0 mg/kg/injection, schedule: Q01DX009 (ip), vehicle: saline) is 100 % of control; the T/C (endpoint: mean survival time, dose: 400.0 mg/kg/injection, schedule: Q01DX009 (ip), vehicle: saline) was 98 % of control.

Regarding `COc1cc2c(cc1OC)-c1cc3cc(OC)c(OC)cc3c(C)[n+]1CC2` (tested in a mixture with another compound), the T/C (endpoint: mean survival time, dose: 100.0 mg/kg/injection, schedule: Q04DX003 (ip), vehicle: saline sonified) is 103 % of control.

With `CCCCCC1C(O)C(=O)OC1(C(F)(F)F)C(F)(F)F` (configuration not stated), the T/C was 91 % of control (endpoint: mean survival time, dose: 100.0 mg/kg/injection, schedule: Q04DX003 (ip), vehicle: Klucel (hydroxypropylcellulose) (HPC)); 94 % of control (endpoint: mean survival time, dose: 200.0 mg/kg/injection, schedule: Q04DX003 (ip), vehicle: Klucel (hydroxypropylcellulose) (HPC)); 96 % of control (endpoint: mean survival time, dose: 400.0 mg/kg/injection, schedule: Q04DX003 (ip), vehicle: Klucel (hydroxypropylcellulose) (HPC)).

For the compound `O=[N+]([O-])c1cccc(S(=O)(=O)N2CCCCC2)c1`, the T/C by setting is: under setting [10], 95 % of control; under setting [11], 87 % of control; under setting [12], 95 % of control; (endpoint: mean survival time, dose: 400.0 mg/kg/injection, schedule: Q04DX002 (ip), vehicle: saline with Tween-80) 91 % of control.

Turning to `CCCCCCCCCCCCCCCCCCNC(=S)NCCCCCCCCCCCCCCCCCC`, the T/C runs as follows: (endpoint: mean survival time, dose: 12.5 mg/kg/injection, schedule: Q01DX009 (ip), vehicle: saline with Tween-80) 97 % of control; (endpoint: mean survival time, dose: 25.0 mg/kg/injection, schedule: Q01DX009 (ip), vehicle: saline with Tween-80) 98 % of control; under setting [1], 90 % of control and 98 % of control; under setting [2], 90 % of control.

Regarding `CC(=Nc1ccccc1)C1=C(O)C(Cc2ccc(O)c(O)c2)NC1=O` (configuration not stated), the T/C is 103 % of control under setting [10], 103 % of control under setting [11] and 100 % of control under setting [12].

For the compound `COc1cc2ccc3cnccc3c2cc1OC`, the T/C is 100 % of control (endpoint: mean survival time, dose: 12.5 mg/kg/injection, schedule: Q01DX009 (ip), vehicle: Klucel (hydroxypropylcellulose) (HPC)); 92 % of control (endpoint: mean survival time, dose: 25.0 mg/kg/injection, schedule: Q01DX009 (ip), vehicle: Klucel (hydroxypropylcellulose) (HPC)); 94 % of control (endpoint: mean survival time, dose: 50.0 mg/kg/injection, schedule: Q01DX009 (ip), vehicle: Klucel (hydroxypropylcellulose) (HPC)); 94 % of control (endpoint: mean survival time, dose: 100.0 mg/kg/injection, schedule: Q01DX009 (ip), vehicle: Klucel (hydroxypropylcellulose) (HPC)); 100 % of control (endpoint: mean survival time, dose: 200.0 mg/kg/injection, schedule: Q01DX009 (ip), vehicle: Klucel (hydroxypropylcellulose) (HPC)).

On to `C=C(Br)CNC(=O)OCCCC`, for which the T/C under setting [1] was 88 % of control.

Take `CNC1CCCCC1[N+](C)(C)C` (configuration not stated): the T/C is 98 % of control (endpoint: mean survival time, dose: 5.0 mg/kg/injection, schedule: Q01DX009 (ip), vehicle: saline); 103 % of control (endpoint: mean survival time, dose: 5.0 mg/kg/injection, schedule: Q04DX003 (ip), vehicle: saline); 101 % of control (endpoint: mean survival time, dose: 10.0 mg/kg/injection, schedule: Q01DX009 (ip), vehicle: saline); 101 % of control (endpoint: mean survival time, dose: 10.0 mg/kg/injection, schedule: Q04DX003 (ip), vehicle: saline); 96 % of control (endpoint: mean survival time, dose: 20.0 mg/kg/injection, schedule: Q01DX009 (ip), vehicle: saline); 98 % of control (endpoint: mean survival time, dose: 20.0 mg/kg/injection, schedule: Q04DX003 (ip), vehicle: saline).

For `C1CC[N-]CC1.C1CC[N-]CC1.[Cl][Pd][Cl]`, the T/C by setting is: (endpoint: mean survival time, dose: 25.0 mg/kg/injection, schedule: Q04DX002 (ip), vehicle: saline with Tween-80) 89 % of control; under setting [10], 96 % of control.

As for `C[n+]1cccc(C(=O)c2ccccc2)c1`, the T/C (endpoint: mean survival time, dose: 75.0 mg/kg/injection, schedule: Q01DX001 (ip), vehicle: other) was 100 % of control.

With `Cc1c2c(cc3c1CCC1(C)C3CCC1C(C)/C=C/C(C)C(C)C)CCC=C2` (configuration not stated), the T/C runs as follows: under setting [7], 95 % of control; under setting [8], 90 % of control; under setting [9], 86 % of control.

As to `O=P(Oc1ccccc1)(Oc1ccccc1)N(CCCl)CCCl`, the T/C was 101 % of control (endpoint: mean survival time, dose: 12.5 mg/kg/injection, schedule: Q01DX009 (ip), vehicle: water); 100 % of control and 108 % of control (endpoint: mean survival time, dose: 25.0 mg/kg/injection, schedule: Q01DX009 (ip), vehicle: water); 104 % of control (endpoint: mean survival time, dose: 31.25 mg/kg/injection, schedule: Q01DX001 (ip), vehicle: distilled water + Tween-80); 104 % of control (endpoint: mean survival time, dose: 50.0 mg/kg/injection, schedule: Q01DX009 (ip), vehicle: water); 107 % of control (endpoint: mean survival time, dose: 62.5 mg/kg/injection, schedule: Q01DX001 (ip), vehicle: distilled water + Tween-80); 161 % of control (endpoint: mean survival time, dose: 100.0 mg/kg/injection, schedule: Q01DX009 (ip), vehicle: water). Further, the T/C is 102 % of control (endpoint: mean survival time, dose: 125.0 mg/kg/injection, schedule: Q01DX001 (ip), vehicle: distilled water + Tween-80) and 119 % of control (endpoint: mean survival time, dose: 250.0 mg/kg/injection, schedule: Q01DX001 (ip), vehicle: distilled water + Tween-80).

Consider `C=C[C](=C)[Pb]([CH2]C)([CH2]C)[CH2]C`, for which the T/C is 100 % of control (endpoint: mean survival time, dose: 75.0 mg/kg/injection, schedule: Q01DX001 (ip), vehicle: saline); 97 % of control (endpoint: mean survival time, dose: 150.0 mg/kg/injection, schedule: Q01DX001 (ip), vehicle: saline); 107 % of control (endpoint: mean survival time, dose: 300.0 mg/kg/injection, schedule: Q01DX001 (ip), vehicle: saline).

`CCNCCNc1ccc(NCCNCC)c2c1C(=O)c1ccccc1C2=O`: the T/C by setting is: (endpoint: mean survival time, dose: 2.0 mg/kg/injection, schedule: Q01DX009 (ip), vehicle: acid diluted with saline) 122 % of control; (endpoint: mean survival time, dose: 4.0 mg/kg/injection, schedule: Q01DX009 (ip), vehicle: acid diluted with saline) 122 % of control and 123 % of control.
